Test results as given in patent US4965280A, “Antifungal carbinols” (E. I. Du Pont de Nemours and Company, priority 1989, dated 1990).

Experiments:
WILD RADISH = assay: Test E; assay type: in vivo, Raphanus raphanistrum
CTCHWD BEDSTRAW = assay: Test E; assay type: in vivo, Galium aparine
BLACK NIGHTSHAD = assay: Test E; assay type: in vivo, Solanum nigrum
JET RAPE = assay: Test E; assay type: in vivo, Brassica napus cv. Jet Neuf
CMN CHICKWEED = assay: Test E; assay type: in vivo, Stellaria media
BLACKGRASS = assay: Test E; assay type: in vivo, Alopercurus mysuroides
Description: Seeds of the following crops and weeds are sown into 15 cm pots containing Sassafras sandy loam soil: wheat (Triticum aestivum cv. Park), barley (Hordeum vulgare cv. Bonanza), sugarbeet (Beta vulgaris cv. USH-11), rapeseed (Brassica napus cv. Jet Neuf), black nightshade (Solanum nigrum), chickweed (Stellaria media), lambsquarter (Chenopodium album), Galium aparine, knotweed (Polygonum aviculare), Kochia scoparia, Matricaria indora, redroot pigweed (Amaranthus retroflexus), smartweed (Polygonum persicaria), speedwell (Veronica persica), wild buckwheat (Polygonum convolvulus), wild mustard (Brassica spp.), wild radish (Raphanus raphanistrum), annual bluegrass (PO annua), annual ryegrass (Lolium multiflorum), blackgrass (Alopercurus mysuroides), green foxtail (Setaria viridis), and wild oats (Avena fatua). Compounds are formulated in a nonphytotoxic solvent and applied to the plants as a foliar spray or applied to the soil surface. Plants are treated at two stages: preemergence, or postemergence when the sugarbeets are at the 2-3 true leaf stage. Plants are grown in a temperature-controlled greenhouse for the duration of the test.
Weed control and crop injury are evaluated visually at 3-4 weeks after compound application, using a scale of 0 to 100%, where 0=no injury and 100=complete death of the plant. All plants are rated with respect to untreated plants (checks) grown in the greenhouse under identical conditions to the treated plants.

SNTLS CHAMOMILE = assay: Test E; assay type: in vivo, Matricaria indora
FALL PANICUM = assay: Test D; assay type: in vivo, Panicum dichotomiflorum
LAMBSQUARTER = assay: Test D; assay type: in vivo, Chenopodium album
JIMSONWEED = assay: Test D; assay type: in vivo, Datura stramonium
GREEN FOXTAIL = assay: Test D; assay type: in vivo, Setaria viridis
WILLMS SOYBEANS = assay: Test D; assay type: in vivo, Glycine max
COCKLEBUR = assay: Test D; assay type: in vivo, Xanthium pensylvanicum

C=C(c1ccccc1)C(O)(Cn1cncn1)c1ccc(F)cc1F (stereo not drawn) [Example 52, 2-(2,4-Difluorophenyl)-3-phenyl-1-(1H-1,2,4-triazol-1-yl)-3-buten-2-ol]
plant response (WILD RADISH; POSTEMERGENCE 0064 GM/HA): 10%
plant response (WILD RADISH; POSTEMERGENCE 0125 GM/HA): 10%
plant response (WILD RADISH; POSTEMERGENCE 0250 GM/HA): 50%
plant response (WILD RADISH; POSTEMERGENCE 0500 GM/HA): 80%
plant response (WILD RADISH; PREEMERGENCE 0250 GM/HA): 50%
plant response (CTCHWD BEDSTRAW; POSTEMERGENCE 0064 GM/HA): 20%
plant response (CTCHWD BEDSTRAW; POSTEMERGENCE 0125 GM/HA): 80%
plant response (CTCHWD BEDSTRAW; POSTEMERGENCE 0250 GM/HA): 70%
plant response (CTCHWD BEDSTRAW; POSTEMERGENCE 0500 GM/HA): 100%
plant response (CTCHWD BEDSTRAW; PREEMERGENCE 0250 GM/HA): 100%
plant response (BLACK NIGHTSHAD; POSTEMERGENCE 0064 GM/HA): 0%
plant response (BLACK NIGHTSHAD; POSTEMERGENCE 0125 GM/HA): 0%
plant response (BLACK NIGHTSHAD; POSTEMERGENCE 0250 GM/HA): 10%
plant response (BLACK NIGHTSHAD; POSTEMERGENCE 0500 GM/HA): 70%
plant response (BLACK NIGHTSHAD; PREEMERGENCE 0250 GM/HA): 100%
plant response (JET RAPE; POSTEMERGENCE 0064 GM/HA): 0%
plant response (JET RAPE; POSTEMERGENCE 0125 GM/HA): 0%
plant response (JET RAPE; POSTEMERGENCE 0250 GM/HA): 20%
plant response (JET RAPE; POSTEMERGENCE 0500 GM/HA): 40%
plant response (JET RAPE; PREEMERGENCE 0250 GM/HA): 20%
plant response (CMN CHICKWEED; POSTEMERGENCE 0064 GM/HA): 0%
plant response (CMN CHICKWEED; POSTEMERGENCE 0125 GM/HA): 0%
plant response (CMN CHICKWEED; POSTEMERGENCE 0250 GM/HA): 0%
plant response (CMN CHICKWEED; POSTEMERGENCE 0500 GM/HA): 0%
plant response (CMN CHICKWEED; PREEMERGENCE 0250 GM/HA): 0%
plant response (BLACKGRASS; POSTEMERGENCE 0064 GM/HA): 0%
plant response (BLACKGRASS; POSTEMERGENCE 0125 GM/HA): 0%
plant response (BLACKGRASS; POSTEMERGENCE 0250 GM/HA): 20%
plant response (BLACKGRASS; POSTEMERGENCE 0500 GM/HA): 60%
plant response (BLACKGRASS; PREEMERGENCE 0250 GM/HA): 20%
plant response (SNTLS CHAMOMILE; POSTEMERGENCE 0064 GM/HA): 20%
plant response (SNTLS CHAMOMILE; POSTEMERGENCE 0125 GM/HA): 50%
plant response (SNTLS CHAMOMILE; POSTEMERGENCE 0250 GM/HA): 50%
plant response (SNTLS CHAMOMILE; POSTEMERGENCE 0500 GM/HA): 85%
plant response (SNTLS CHAMOMILE; PREEMERGENCE 0250 GM/HA): 100%

C=C(c1ccc(Cl)cc1Cl)C(O)(Cn1cncn1)c1ccccc1F (stereo not drawn) [Example 107]
plant response (WILD RADISH; PREEMERGENCE 0250 GM/HA): 60%
plant response (CTCHWD BEDSTRAW; PREEMERGENCE 0250 GM/HA): 0%
plant response (BLACK NIGHTSHAD; PREEMERGENCE 0250 GM/HA): 80%
plant response (JET RAPE; PREEMERGENCE 0250 GM/HA): 30%
plant response (CMN CHICKWEED; PREEMERGENCE 0250 GM/HA): 0%
plant response (BLACKGRASS; PREEMERGENCE 0250 GM/HA): 20%
plant response (SNTLS CHAMOMILE; PREEMERGENCE 0250 GM/HA): 70%

C=C(c1ccccc1Cl)C(O)(Cn1cncn1)c1ccc(Cl)cc1Cl (stereo not drawn) [Example 33, 2-(2,4-Dichlorophenyl)-3-(2-chlorophenyl)-1-(1H-1,2,4-triazol-1-yl)-3-buten-2-ol]
plant response (FALL PANICUM; POSTEMERGENCE 0250 GM/HA): 0%
plant response (FALL PANICUM; POSTEMERGENCE 0500 GM/HA): 0%
plant response (FALL PANICUM; POSTEMERGENCE 1000 GM/HA): 0%
plant response (FALL PANICUM; PREEMERGENCE 0250 GM/HA): 0%
plant response (FALL PANICUM; PREEMERGENCE 0500 GM/HA): 0%
plant response (FALL PANICUM; PREEMERGENCE 1000 GM/HA): 0%
plant response (LAMBSQUARTER; POSTEMERGENCE 0250 GM/HA): 0%
plant response (LAMBSQUARTER; POSTEMERGENCE 0500 GM/HA): 0%
plant response (LAMBSQUARTER; POSTEMERGENCE 1000 GM/HA): 0%
plant response (LAMBSQUARTER; PREEMERGENCE 0250 GM/HA): 0%
plant response (LAMBSQUARTER; PREEMERGENCE 0500 GM/HA): 0%
plant response (LAMBSQUARTER; PREEMERGENCE 1000 GM/HA): 0%
plant response (JIMSONWEED; POSTEMERGENCE 0250 GM/HA): 0%
plant response (JIMSONWEED; POSTEMERGENCE 0500 GM/HA): 0%
plant response (JIMSONWEED; POSTEMERGENCE 1000 GM/HA): 0%
plant response (JIMSONWEED; PREEMERGENCE 0250 GM/HA): 0%
plant response (JIMSONWEED; PREEMERGENCE 0500 GM/HA): 0%
plant response (JIMSONWEED; PREEMERGENCE 1000 GM/HA): 0%
plant response (GREEN FOXTAIL; POSTEMERGENCE 0250 GM/HA): 0%
plant response (GREEN FOXTAIL; POSTEMERGENCE 0500 GM/HA): 0%
plant response (GREEN FOXTAIL; POSTEMERGENCE 1000 GM/HA): 0%
plant response (GREEN FOXTAIL; PREEMERGENCE 0250 GM/HA): 0%
plant response (GREEN FOXTAIL; PREEMERGENCE 0500 GM/HA): 0%
plant response (GREEN FOXTAIL; PREEMERGENCE 1000 GM/HA): 0%
plant response (WILLMS SOYBEANS; POSTEMERGENCE 0250 GM/HA): 0%
plant response (WILLMS SOYBEANS; POSTEMERGENCE 0500 GM/HA): 0%
plant response (WILLMS SOYBEANS; POSTEMERGENCE 1000 GM/HA): 0%
plant response (WILLMS SOYBEANS; PREEMERGENCE 0250 GM/HA): 0%
plant response (WILLMS SOYBEANS; PREEMERGENCE 0500 GM/HA): 0%
plant response (WILLMS SOYBEANS; PREEMERGENCE 1000 GM/HA): 0%
plant response (COCKLEBUR; POSTEMERGENCE 0250 GM/HA): 0%
plant response (COCKLEBUR; POSTEMERGENCE 0500 GM/HA): 0%
plant response (COCKLEBUR; POSTEMERGENCE 1000 GM/HA): 0%
plant response (COCKLEBUR; PREEMERGENCE 0250 GM/HA): 0%
plant response (COCKLEBUR; PREEMERGENCE 0500 GM/HA): 0%
plant response (COCKLEBUR; PREEMERGENCE 1000 GM/HA): 0%
